Data reported in patent publication US9115134B2, “6-triazolopyridazine sulfanyl benzothiazole derivatives as MET inhibitors” (SANOFI, priority 2007, dated 2015).

Tests used:
MET [1] = target: T1, MET (Homo sapiens, UniProt P08581); experiment: Test B: Inhibition of the autophosphorylation of MET; ELISA technique (pppY1230,1234,1235) in MKN45 cells; format: cell-based; set-up: Seed MKN45 cells into 96-well plates (Cell coat BD polylysine) at 20 000 cells/well; endogenous in cells; host or cells: MKN45 cells; conditions: 1 h treatment, PhosphoMET ELISA
Method in brief: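 Adhered cells treated 1 h with six compound concentrations in duplicate, final 10 000 to 30 nM, against DMSO controls. Cells then lysed at 4° C for 30 min in Triton/SDS/deoxycholate buffer with phosphatase inhibitors. Phospho-MET measured by sandwich ELISA with anti-phospho MET antibody and HRP detection, absorbance at 450 nm.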
Target sequence in this assay (P08581 25-1390): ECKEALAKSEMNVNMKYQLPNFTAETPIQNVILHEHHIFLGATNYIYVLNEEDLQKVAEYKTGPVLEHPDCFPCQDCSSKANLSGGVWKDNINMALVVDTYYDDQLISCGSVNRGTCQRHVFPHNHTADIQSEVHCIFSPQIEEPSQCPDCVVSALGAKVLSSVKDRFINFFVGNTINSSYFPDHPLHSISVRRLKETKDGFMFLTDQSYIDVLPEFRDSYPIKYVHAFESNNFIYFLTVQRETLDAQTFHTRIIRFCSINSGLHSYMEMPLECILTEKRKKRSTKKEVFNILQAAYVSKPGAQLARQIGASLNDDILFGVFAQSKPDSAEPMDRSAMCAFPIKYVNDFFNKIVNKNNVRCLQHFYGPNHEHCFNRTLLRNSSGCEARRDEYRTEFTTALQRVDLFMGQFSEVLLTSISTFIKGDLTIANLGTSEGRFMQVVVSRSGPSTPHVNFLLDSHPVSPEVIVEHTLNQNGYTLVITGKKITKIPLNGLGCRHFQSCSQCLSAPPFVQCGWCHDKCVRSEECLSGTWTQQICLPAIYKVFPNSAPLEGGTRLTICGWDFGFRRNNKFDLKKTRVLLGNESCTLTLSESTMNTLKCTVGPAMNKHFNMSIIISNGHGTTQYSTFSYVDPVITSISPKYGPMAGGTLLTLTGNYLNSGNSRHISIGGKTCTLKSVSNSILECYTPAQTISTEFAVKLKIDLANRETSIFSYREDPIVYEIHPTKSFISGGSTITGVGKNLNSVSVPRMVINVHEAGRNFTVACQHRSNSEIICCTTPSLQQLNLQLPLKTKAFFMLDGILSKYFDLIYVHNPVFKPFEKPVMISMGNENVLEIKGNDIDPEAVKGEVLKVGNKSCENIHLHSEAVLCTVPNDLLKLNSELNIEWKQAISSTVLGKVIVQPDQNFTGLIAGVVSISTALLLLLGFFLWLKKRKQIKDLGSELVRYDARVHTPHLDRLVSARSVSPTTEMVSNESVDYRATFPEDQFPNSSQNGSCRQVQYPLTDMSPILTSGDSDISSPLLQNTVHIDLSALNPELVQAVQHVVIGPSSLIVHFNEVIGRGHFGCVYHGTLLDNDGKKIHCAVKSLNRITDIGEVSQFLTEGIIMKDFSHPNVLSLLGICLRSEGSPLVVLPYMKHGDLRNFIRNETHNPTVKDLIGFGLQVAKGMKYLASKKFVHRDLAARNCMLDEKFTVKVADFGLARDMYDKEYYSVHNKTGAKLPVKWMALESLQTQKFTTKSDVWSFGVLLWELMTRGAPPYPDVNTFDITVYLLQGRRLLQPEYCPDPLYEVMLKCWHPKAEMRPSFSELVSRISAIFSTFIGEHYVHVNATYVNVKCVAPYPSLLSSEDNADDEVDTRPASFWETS

[2] = test system: HCT116 cells, MKN45 cells; experiment: Test C: Measurement of cell proliferation by 14C-thymidine pulse; format: cell-based; conditions: 14C-thymidine incorporation, 96 h of treatment; cell line not given
Method in brief: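 HCT116 (2500/well, DMEM) and MKN45 (7500/well, RPMI), both with 10% FCS, treated after 4 h with 10 concentrations from 10 000 to 0.3 nM (3-fold, duplicate). ¹⁴C-thymidine (0.1 μCi/well) added at 72 h; incorporation read after 24 h pulse, 96 h total treatment.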

MET [3] = target: T1, MET; experiment: Test A: HTRF MET assay in 96-well format; format: biochemical; set-up: The His-Tev-MET (956-1390) recombinant DNA in pFastBac (Invitrogen) is transfected into insect cells; His tag (N, cleaved yes); TEV cleavage site (N); made in house; host or cells: SF21 insect cells (baculovirus, pFastBac); conditions: MET 5 nM, 10 μM ATP
Method in brief: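 Purified human MET cytoplasmic domain (956-1390, His tag cleaved), 5 nM, with compound (0.17 nM–10 μM, 3% DMSO) in MOPS pH 7.4; 1 μg/ml poly-(GAT), 10 μM ATP, 5 mM MgCl2, 10 min at ambient temperature. HTRF read-out (streptavidin-XL/anti-pTyr Eu cryptate, 2 h); % inhibition from 665/620 ratios.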
Target sequence in this assay (P08581 956-1390): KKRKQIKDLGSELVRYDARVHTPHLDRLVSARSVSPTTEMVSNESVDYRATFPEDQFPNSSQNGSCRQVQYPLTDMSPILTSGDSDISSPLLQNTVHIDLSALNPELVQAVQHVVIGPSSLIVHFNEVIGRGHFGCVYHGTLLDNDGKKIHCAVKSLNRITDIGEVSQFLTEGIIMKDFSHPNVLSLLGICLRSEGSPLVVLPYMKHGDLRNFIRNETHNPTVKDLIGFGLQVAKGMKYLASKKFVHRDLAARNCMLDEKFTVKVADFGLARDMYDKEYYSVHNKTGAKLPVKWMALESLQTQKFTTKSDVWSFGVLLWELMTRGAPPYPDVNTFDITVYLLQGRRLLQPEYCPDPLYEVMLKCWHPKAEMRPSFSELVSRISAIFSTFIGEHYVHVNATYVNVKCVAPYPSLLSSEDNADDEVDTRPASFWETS

An IC50 (MET [1]) of under 100 nM, an IC50 [2] of under 1000 nM and an IC50 (MET [3]) of under 100 nM were found for `O=C(NCCN1CCOCC1)Nc1nc2ccc(Sc3nnc4ccc(-c5cccc(F)c5)nn34)cc2s1` [Example 64, 1-(6-{[6-(3-Fluorophenyl)[1,2,4]triazolo[4,3-b]pyridazin-3-yl]sulphanyl}-1,3-benzothiazol-2-yl)-3-[2-(morpholin-4-yl)ethyl]urea] in this work.

An IC50 (MET [1]) of under 100 nM, an IC50 [2] of under 1000 nM and an IC50 (MET [3]) of under 100 nM were found for `CC(=O)Nc1nc2ccc(Sc3nnc4ccc(-c5cccc(F)c5)nn34)cc2s1` [Example 65, N-(6-{[6-(3-Fluorophenyl)[1,2,4]triazolo[4,3-b]pyridazin-3-yl]sulphanyl}-1,3-benzothiazol-2-yl)acetamide] in this work.

An IC50 (MET [1]) of 100 to 500 nM, an IC50 [2] of under 1000 nM and an IC50 (MET [3]) of under 100 nM were found for `CC(C)C(=O)Nc1nc2ccc(Sc3nnc4ccc(-c5ccc(F)cc5)nn34)cc2s1` [Example 66, N-(6-{[6-(4-Fluorophenyl)[1,2,4]triazolo[4,3-b]pyridazin-3-yl]sulphanyl}-1,3-benzothiazol-2-yl)-2-methylpropanamide] in this work.

An IC50 (MET [1]) of under 100 nM, an IC50 [2] of under 1000 nM and an IC50 (MET [3]) of under 100 nM were found for `O=C(Nc1nc2ccc(Sc3nnc4ccc(-c5cccc(F)c5)nn34)cc2s1)C1CC1` [Example 67, N-(6-{[6-(3-Fluorophenyl)[1,2,4]triazolo[4,3-b]pyridazin-3-yl]sulphanyl}-1,3-benzothiazol-2-yl)cyclopropanecarboxamide] in this work.

An IC50 (MET [1]) of over 500 nM, an IC50 [2] of under 10000 nM and a melting point of 220 °C were found for `CCC(C)CNc1nc2ccc(Sc3nnc4n3N=C(c3ccc(F)cc3)CC4)cc2s1` (stereo not shown) [Example 68, 6-{[6-(4-Fluorophenyl)-7,8-dihydro[1,2,4]triazolo[4,3-b]pyridazin-3-yl]sulphanyl}-N-(2-methylbutyl)-1,3-benzothiazol-2-amine] in this work. The IC50 (MET [3]) was under 500 nM.
